Test results taken from PubChem BioAssay (NCI).
“And” between values parts separate entries of the source, which are not always exact repeats. Equal entries are not always repeated.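 48-hour exposure; five concentrations; linearly interpolated endpoints. At the GI50, growth is halved. TGI: total growth inhibition.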

Assays:
Assay in all cases: NCI tumour cell line growth inhibition, 48 h
[1] = system: MDA-MB-468 breast
[2] = system: HCT-116 colon
[3] = system: OVCAR-5 ovarian
[4] = system: A498 renal
[5] = system: NCI-H460 lung
[6] = system: HOP-62 NSCLC
[7] = system: NCI-H226 lung
[8] = system: NCI/ADR-RES ovarian
[9] = system: RXF 393 renal
[10] = system: HCT-15 colon
[11] = system: ACHN renal
[12] = system: SF-295 CNS
[13] = system: SF-268 CNS
[14] = system: SR leukemia
[15] = system: MOLT-4 leukemia
[16] = system: SNB-19 CNS
[17] = system: EKVX NSCLC
[18] = system: MDA-MB-231 breast
[19] = system: SK-MEL-2 melanoma
[20] = system: UO-31 renal
[21] = system: TK-10 renal
[22] = system: DU-145 prostate
[23] = system: NCI-H23 lung
[24] = system: SK-MEL-5 melanoma
[25] = system: K-562 leukemia
[26] = system: SN12C renal
[27] = system: CCRF-CEM leukemia
[28] = system: HT29 colon
[29] = system: OVCAR-3 ovarian
[30] = system: KM12 colon
[31] = system: SK-OV-3 ovarian
[32] = system: UACC-257 melanoma
[33] = system: HS 578T breast
[34] = system: HCC-2998 colon
[35] = system: CAKI-1 renal
[36] = system: A549 NSCLC
[37] = system: U251 CNS
[38] = system: PC-3 prostate
[39] = system: M14 melanoma
[40] = system: BT-549 breast
[41] = system: SW-620 colon
[42] = system: MDA-MB-435
[43] = system: 786-0 renal
[44] = system: IGROV1 ovarian
[45] = system: HOP-92 NSCLC
[46] = system: RPMI-8226 leukemia
[47] = system: OVCAR-4 ovarian
[48] = system: MCF7 breast
[49] = system: SK-MEL-28 melanoma
[50] = system: SNB-75 CNS
[51] = system: T-47D breast
[52] = system: HL-60(TB) leukemia
[53] = system: OVCAR-8 ovarian
[54] = system: SF-539 CNS
[55] = system: LOX IMVI melanoma

Compound: CCc1c2c(nc3ccc(OCc4ccc(B5OC(C)(C)C(C)(C)O5)cc4)cc13)-c1cc3c(c(=O)n1C2)COC(=O)[C@]3(O)CC
- GI50 [1]: < 10 nM
- TGI [1]: 43.2 nM

Compound: Nc1ccc(-c2nnc(SCc3ccc(O)c4ncccc34)n2-c2ccccc2)cc1
- GI50 [1]: 35.8 nM
- TGI [1]: 1850 nM

Compound: CCCCN(CCCC)CCC(O)c1cc2ccc(C(F)(F)F)cc2c2cc(C(F)(F)F)ccc12 (stereo unspecified)
- GI50 [1]: 1680 nM
- TGI [1]: 3460 nM

Compound: CCCN(CCC)S(=O)(=O)c1ccc(C(=O)O)cc1.CCCN(CCC)S(=O)(=O)c1ccc(C(=O)O)cc1.[Cl][Pt+2][Cl].[NH2-].[NH2-]
- GI50 [2]: 945 nM
- TGI [2]: > 52000 nM
- GI50 [3]: 1440 nM
- TGI [3]: > 100000 nM
- GI50 [4]: 29600 nM
- TGI [4]: > 85400 nM
- GI50 [5]: 151 nM
- TGI [5]: > 68600 nM
- GI50 [6]: 653 nM
- TGI [6]: > 95000 nM
- GI50 [7]: 4040 nM
- TGI [7]: 99600 nM
- GI50 [8]: > 100000 nM
- TGI [8]: > 100000 nM
- GI50 [9]: 425 nM
- TGI [9]: 5080 nM
- GI50 [10]: > 100000 nM
- TGI [10]: > 100000 nM
- GI50 [11]: 477 nM
- TGI [11]: > 100000 nM
- GI50 [12]: 1640 nM
- TGI [12]: > 100000 nM
- GI50 [13]: 700 nM
- TGI [13]: > 100000 nM
- GI50 [14]: 112 nM
- TGI [14]: > 100000 nM
- GI50 [15]: 246 nM
- TGI [15]: > 100000 nM
- GI50 [16]: 1600 nM
- TGI [16]: 60500 nM
- GI50 [17]: 8400 nM
- TGI [17]: > 100000 nM
- GI50 [18]: 3150 nM
- TGI [18]: > 58300 nM
- GI50 [19]: 2030 nM
- TGI [19]: 5210 nM
- GI50 [20]: > 72600 nM
- TGI [20]: > 100000 nM
- GI50 [21]: > 100000 nM
- TGI [21]: > 100000 nM
- GI50 [22]: 351 nM
- TGI [22]: > 100000 nM
- GI50 [23]: 249 nM
- TGI [23]: 2810 nM
- GI50 [24]: 476 nM
- TGI [24]: 1800 nM
- GI50 [25]: 179 nM
- TGI [25]: > 100000 nM
- GI50 [26]: 200 nM
- TGI [26]: > 100000 nM
- GI50 [27]: 138 nM
- GI50 [28]: 2760 nM
- TGI [28]: > 100000 nM
- GI50 [29]: 1070 nM
- TGI [29]: > 27000 nM
- GI50 [30]: 2610 nM
- TGI [30]: > 100000 nM
- GI50 [31]: 1580 nM
- TGI [31]: 22000 nM
- GI50 [32]: 2130 nM
- TGI [32]: > 100000 nM
- GI50 [33]: 13900 nM
- TGI [33]: > 100000 nM
- GI50 [34]: 926 nM
- TGI [34]: 9490 nM
- GI50 [35]: 2270 nM
- TGI [35]: > 100000 nM
- GI50 [36]: 2890 nM
- TGI [36]: > 100000 nM
- GI50 [37]: 995 nM
- TGI [37]: > 84200 nM
- GI50 [38]: 2250 nM
- TGI [38]: > 100000 nM
- GI50 [39]: 1000 nM
- TGI [39]: > 100000 nM
- GI50 [40]: 369 nM
- TGI [40]: 1900 nM
- GI50 [41]: 518 nM
- TGI [41]: > 100000 nM
- GI50 [42]: 801 nM
- TGI [42]: 2720 nM
- GI50 [43]: 1440 nM
- TGI [43]: > 100000 nM
- GI50 [44]: 3600 nM
- TGI [44]: 24200 nM
- GI50 [45]: 596 nM
- TGI [45]: > 21800 nM
- GI50 [46]: 289 nM
- GI50 [47]: 4570 nM
- TGI [47]: > 100000 nM
- GI50 [48]: 149 nM
- TGI [48]: > 100000 nM
- GI50 [49]: 733 nM
- TGI [49]: > 24100 nM
- GI50 [50]: 666 nM
- TGI [50]: 13300 nM
- GI50 [51]: 349 nM
- TGI [51]: > 100000 nM
- GI50 [52]: 221 nM
- TGI [52]: > 100000 nM
- GI50 [53]: 1400 nM
- TGI [53]: > 100000 nM
- GI50 [54]: 289 nM
- TGI [54]: > 33200 nM
- GI50 [55]: 349 nM
- TGI [55]: > 45200 nM

Compound: N/C(=N\c1nc2c(Br)cccc2s1)C(Br)Br
- GI50 [1]: 2570 nM
- TGI [1]: 9690 nM

Compound: c1ccc(/C(=N\Nc2ccc3ccccc3n2)c2ccccn2)cc1
- GI50 [1]: 364 nM
- TGI [1]: 5820 nM

Compound: Cc1ccccc1NC(=O)c1cc2ccccc2cc1O
- GI50 [1]: 2640 nM
- TGI [1]: 7890 nM

Compound: O=[N+]([O-])c1cc2c(ccc3occc32)o1
- GI50 [1]: 3180 nM
- TGI [1]: 17100 nM

Compound: Oc1ccc(O)c2c1C1(Cl)C(Cl)=C(Cl)C2(Cl)C1(Cl)Cl
- GI50 [1]: 3710 nM
- TGI [1]: 12800 nM

Compound: NS(=O)(=O)c1ccc(N2N=C(c3cccs3)CC2c2ccccc2O)cc1 (stereo unspecified)
- GI50 [1]: 717 nM
- TGI [1]: 3890 nM

Compound: CNc1ncc2cc(Oc3ccc(F)cc3F)c(=O)n(C)c2n1
- GI50 [1]: > 25000 nM
- TGI [1]: > 25000 nM

Compound: COc1cc(NC(=O)c2cc(O)c(C/C=C(\C)CCC=C(C)C)c(O)c2)cc2c1O[C@]1(C)CC[C@@H](O)C(C)(C)[C@H]1C2
- GI50 [1]: 2000 nM
- TGI [1]: 8080 nM

Compound: Nc1nc(Cl)nc2c1ncn2[C@@H]1O[C@H](COS(N)(=O)=O)[C@@H](O)[C@H]1O
- GI50 [1]: 17.6 nM
- TGI [1]: 46.8 nM and 39.6 nM

Compound: Cc1ccc(-c2c3c(N)c4c(nc3nc3c2c(C)nn3-c2ccccc2)CCC4)cc1
- GI50 [1]: 1970 nM
- TGI [1]: 5150 nM

Compound: COc1cc2nc(N3CCC[C@@H](NC4=CC(=O)c5ccccc5C4=O)C3)nc(N)c2cc1OC
- GI50 [1]: 1810 nM
- TGI [1]: 3770 nM

Compound: C=C1C(=O)O[C@H]2[C@H]1CC/C(CNC(=O)/C=C/c1ccc(Cl)cc1Cl)=C\CC[C@@]1(C)O[C@@H]21
- GI50 [1]: 396 nM
- TGI [1]: 1470 nM

Compound: O=CN1N=C(c2ccc(Nc3ccnc4cc(Cl)ccc34)cc2)CC1c1ccc(Cl)cc1 (stereo unspecified)
- GI50 [1]: 318 nM
- TGI [1]: 8330 nM

Compound: Cc1c(C(N)=O)sc2c1c(=O)n(Cc1ccccc1)c1nnc(S(=O)(=O)CC(=O)Nc3ccc(Cl)cc3)n21
- GI50 [1]: 12700 nM
- TGI [1]: 36300 nM

Compound: COc1ccc(CN=C(N)N=C(N)N)cc1OC
- GI50 [1]: 47600 nM
- TGI [1]: 477000 nM

Compound: CNC(=O)c1cncc(/C=C/c2c(Cl)cccc2Cl)c1
- GI50 [1]: 4080 nM
- TGI [1]: > 19100 nM

Compound: CN(C)c1ncnc2c1ccn2C1OC(CO)C(O)C1O (stereo unspecified)
- GI50 [1]: 231 nM
- TGI [1]: 1000 nM

Compound: CN(CCCN(C)CCC1CCCCC1)CCC1CCCCC1
- GI50 [1]: 1300 nM
- TGI [1]: 2660 nM

Compound: O=c1[nH]nc(-c2ccccc2)c2c(-c3ccccc3)onc12
- GI50 [1]: 424 nM
- TGI [1]: > 100000 nM

Compound: Cn1ncnc1C1c2n[nH]c(=O)c3cc(F)cc(c23)NC1c1ccc(F)cc1 (stereo unspecified)
- GI50 [1]: 3740 nM
- TGI [1]: > 100000 nM

Compound: Cc1ccc(S(=O)(=O)Nc2cc(Sc3ccccc3)c(O)c3ccccc23)cc1
- GI50 [1]: 1380 nM
- TGI [1]: 3360 nM

Compound: NCCSC(C[N+](=O)[O-])c1ccccc1Cl (stereo unspecified)
- GI50 [1]: 2380 nM
- TGI [1]: 6500 nM

Compound: CN(C)N=Nc1nn(C(=O)Nc2ccc(Cc3ccccc3)cc2)c2ccccc12
- GI50 [1]: 2940 nM
- TGI [1]: > 100000 nM

Compound: CCc1nc(N)nc(N)c1C#CC(C)c1cc(-c2ccnc(C)c2)c2oc(C)nc2c1 (stereo unspecified)
- GI50 [1]: 103 nM
- TGI [1]: 3000 nM

Compound: COc1ccc2c(c1)C=C1CSCC3=Cc4cc(OC)ccc4OC13O2
- GI50 [1]: 347 nM

Compound: O=C1C=C(OCCCl)C(=O)c2c(O)ccc(O)c21
- GI50 [1]: 1640 nM
- TGI [1]: 3860 nM

Compound: O=C(N/N=C/c1ccc(Br)s1)c1[nH]c2ccc(Br)cc2c1-c1ccccc1
- GI50 [1]: 327 nM
- TGI [1]: 4890 nM

Compound: O=C(CN1C(=O)S/C(=C\C(Cl)=C\c2ccccc2)C1=O)NCCCn1ccnc1
- GI50 [1]: 1350 nM
- TGI [1]: 4190 nM

Compound: CC1=NN(C(=O)c2nn(-c3ccc(Cl)cc3)cc2O)C(=O)C1
- GI50 [1]: 4920 nM
- TGI [1]: 97000 nM

Compound: COC(=O)Nc1nc2ccc(S(=O)(=O)c3ccc(NC(=O)Nc4cc(C(F)(F)F)ccc4F)cc3)cc2[nH]1
- GI50 [1]: > 25000 nM
- TGI [1]: > 25000 nM

Compound: CCCC(CCC)C(=O)OCC1(CO)C/C(=C\c2ccc(C(F)(F)F)cc2)C(=O)O1 (stereo unspecified)
- GI50 [1]: 16600 nM
- TGI [1]: 32900 nM

Compound: O=C(Cn1c2ccccc2c2ccncc21)N/N=C\c1ccc2ccccc2c1
- GI50 [1]: 24400 nM
- TGI [1]: 65500 nM

Compound: COc1cc2c3c(n(CCCNCC4CC4)c(=O)c2cc1OC)-c1cc2c(cc1C3=O)OCO2
- GI50 [1]: 1540 nM
- TGI [1]: 9660 nM

Compound: O=C1NC(SCc2ccc(F)cc2)=N/C1=C/c1cccc(OCc2ccc(Cl)cc2)c1
- GI50 [1]: 15800 nM
- TGI [1]: > 100000 nM

Compound: O=C1COCCN1c1ccc(NCc2cn(C(=O)c3ccc(Cl)cc3)c3ccccc23)cc1
- GI50 [1]: 101 nM
- TGI [1]: 286 nM
